Structures can show the parent of a compound that is named as a salt.

We go through four molecules from patent publication US12054457B2, “Polymorphs of (2S,5R)-5-(2-chlorophenyl)-1-(2′-methoxy-[1,1′-biphenyl]-4-carbonyl)pyrrolidine-2-carboxylic acid and preparation processes thereof” (EPICS THERAPEUTICS, priority 2022, dated 2024).

Format in all cases: physicochemical
A short description of series [1]: Hygroscopicity: weight gain on storage at fixed relative humidity. The text has this:
The previously described solid forms of (2S,5R)-5-(2-chlorophenyl)-1-(2′-methoxy-[1,1′-biphenyl]-4-carbonyl)pyrrolidine-2-carboxylic acid, i.e. the amorphous free acid and the corresponding Na salt, both disclosed in WO2021/250174, are hygroscopic.

Series [2] in a line: Thermal gravimetric analysis (TGA). Particulars: temperature range 10° C.-200° C., 10° C./min, nitrogen purge. The procedure:
The thermal gravimetric analysis (TGA) experiments were performed on a Mettler Toledo TGA/DSC3+ apparatus. The samples (about 10-30 mg) were placed in a 100 μL aluminum sample pan and crimped with a punctured cover. […]

The nature of series [3]: Hygroscopicity by dynamic vapor sorption (DVS). The procedure: The determination of the hygroscopicity of crystalline forms I and II was also evaluated by dynamic vapor sorption (DVS).
The analyses were performed on a Surface Measurements System DVS Intrinsic. The samples were placed in an open aluminum pan. The analyses were performed at 25° C. Relative humidity (RH) was scanned between 0% RH and 95% RH, with 10% RH steps (40-0-95-0-95). The stability criterion was a variation in mass lower than 0.002% on a 5 min. window, with a minimum step time of 10 min and a maximum of 100 min.

Series [4] is described as follows: Thermodynamic stability over time.
Series [5] is described as follows: Cross-seeding tests in water and n-heptane. The note with it: 25° C., form II suspension seeded with form I. How it is done:
Cross-seeding tests were carried out in water and n-heptane.
Method. Saturated solutions of form II were prepared at 25° C. in water and in n-heptane. The suspensions were then seeded with form I after 45 minutes, and kept under stirring at 25° C. The solid phases in suspensions were then periodically controlled by XRPD.

Series [6] in a line: Competitive slurry test between form I and form II in isopropyl alcohol. The procedure: A competitive slurry test between form I and form II of compound (1) was carried out at 10° C., 20° C., 25° C., 30° C. and 40° C. in isopropyl alcohol.
Method. Suspensions of compound (1) under form II, in isopropyl alcohol, were first prepared and equilibrated for 30 min at each of the temperatures to be studied. About 800 μL of the saturated solutions were then sampled, filtered through a 0.2 μm HPTFE filter, and added into a vial containing 50 mg of form I and 50 mg of form II, equipped with a magnetic rod. After 10 seconds, a first sample of the solid phase is taken and analyzed by XRPD to identify the solid phase(s) present. Additional sampling are also performed until only 1 solid phase remains.

Series [7] is described as follows: Competitive slurry test between form I and form II in n-heptane. Particulars: 10° C., 20° C., 25° C., 30° C. and 40° C. The procedure: A competitive slurry test between form I and form II of compound (1) was carried out at 10° C., 20° C., 25° C., 30° C. and 40° C. in n-heptane.
Method. About 1 mL of n-heptane was added into vials containing 40 mg of form I and 40 mg of form II, equipped with a magnetic rod. After 10 seconds, a first sample of the solid phase is taken and analyzed by XRPD to identify the solid phase(s) present. Additional sampling are also performed until only 1 solid phase remains.

On to `COc1ccccc1-c1ccc(C(=O)N2[C@@H](c3ccccc3Cl)CC[C@H]2C(=O)O)cc1` [Na salt, (2S,5R)-5-(2-chlorophenyl)-1-(2′-methoxy-[1,1′-biphenyl]-4-carbonyl)pyrrolidine-2-carboxylic acid], for which the weight gain in series [1] (40% relative humidity, after 14 h) is 7 wt %; in series [1] (70% relative humidity, 22° C., after 14 h), 20 wt %.

Take `COc1ccccc1-c1ccc(C(=O)N2[C@@H](c3ccccc3Cl)CC[C@H]2C(=O)O)cc1` [amorphous free acid, (2S,5R)-5-(2-chlorophenyl)-1-(2′-methoxy-[1,1′-biphenyl]-4-carbonyl)pyrrolidine-2-carboxylic acid]: the weight gain in series [1] (40% relative humidity, after 2 days) is recorded as 3 wt %; in series [1] (70-75% relative humidity, room temperature, after 14 h), 8 wt %. For the same molecule, in series [1] (previously described solid forms), the “hygroscopicity (in words)” value is reported as “hygroscopic”.

With `COc1ccccc1-c1ccc(C(=O)N2[C@@H](c3ccccc3Cl)CC[C@H]2C(=O)O)cc1` [form I, (2S,5R)-5-(2-chlorophenyl)-1-(2′-methoxy-[1,1′-biphenyl]-4-carbonyl)pyrrolidine-2-carboxylic acid], in series [2] (listed as crystalline form I), the “weight loss (TGA)” value is −0.14%. The same molecule came in with a weight gain in series [1] (80% relative humidity, 25° C., after 10 days) of 0.09 wt %. Further, the “hygroscopicity (conclusion in words)” value in series [3] (DVS and humidity exposure) is given as “non-hygroscopic”. In addition, the “weight loss on first desorption stage” value in series [3] (DVS, 25° C., 40% RH to 0% RH) is given as −0.1%. In series [3] (DVS, 25° C., first sorption stage (0% RH to 95% RH)), the “weight gain at the end of the step at 70% RH” value is listed as “+0.1%”. In addition, the “maximum weight gain at 95% RH” value in series [3] (DVS, 25° C., first sorption stage (0% RH to 95% RH), listed as crystalline form I) was “+0.7%”. In addition, the “time for which the form is thermodynamically stable” value in series [4] was “at least 6 months”. The “relative stability of the forms” value in series [5] is on record as “greater stability of form I vs. form II”; in series [6] (10° C., 20° C., 25° C., 30° C. and 40° C.), “more stable than form II”.

In the case of `COc1ccccc1-c1ccc(C(=O)N2[C@@H](c3ccccc3Cl)CC[C@H]2C(=O)O)cc1` [form II, (2S,5R)-5-(2-chlorophenyl)-1-(2′-methoxy-[1,1′-biphenyl]-4-carbonyl)pyrrolidine-2-carboxylic acid], the “weight loss (TGA)” value in series [2] (listed as crystalline form II) is −0.2%. For the same molecule, in series [3] (DVS, 25° C., first sorption stage (0% RH to 95% RH), listed as crystalline form II), the “maximum weight gain at 95% RH” value was “+0.4%”. Moreover, the “solid phase conversion (XRPD)” value in series [7] is reported as “conversion of form II into form I”. In addition, in series [6] (10-40° C., first sampling after 10 seconds), the “solid phase present in suspension (XRPD)” value is recorded as “not visible anymore in the suspensions since the first sampling”.
